Data from PMC2897236 (Anesthesia and analgesia, 2009).
Entries after “also recorded” stand apart in the source; their conditions may differ. Where two headings read alike, the source gives them in different places.

Legend:
[1] = test system: GABAA receptors; conditions: modulation of GABAA receptors; cited from earlier work
[2] = read-out: Anesthetic EC50; anesthetizing concentration in animals; cited from earlier work
[3] = target: T1, GLIC (Gloeobacter violaceus, UniProt Q7NDN8); conditions: for Hill Coefficient: Hill (one-site) fit of inhibition of GLIC currents, mean ± se; for modulation of GLIC: at anesthetizing concentrations
T1 sequence (Q7NDN8 44-359): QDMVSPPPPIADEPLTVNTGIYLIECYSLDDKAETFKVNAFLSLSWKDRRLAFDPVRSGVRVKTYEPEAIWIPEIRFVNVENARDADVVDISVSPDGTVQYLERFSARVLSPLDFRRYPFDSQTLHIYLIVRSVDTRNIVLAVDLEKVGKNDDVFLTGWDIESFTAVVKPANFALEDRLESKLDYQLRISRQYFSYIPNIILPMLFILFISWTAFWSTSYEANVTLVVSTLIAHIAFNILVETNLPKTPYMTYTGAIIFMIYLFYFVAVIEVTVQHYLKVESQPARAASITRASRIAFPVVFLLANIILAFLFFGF

[4] = test system: α4β2 neuronal nicotinic acetylcholine receptors; conditions: cited from earlier work
[5] = test system: α3 β4 neuronal nicotinic acetylcholine receptors; conditions: cited from earlier work
[6] = test system: α2 β4 neuronal nicotinic acetylcholine receptors; conditions: cited from earlier work
[7] = test system: 5HT3 receptors; conditions: cited from earlier work
[8] = test system: GABAA receptors containing a δ subunit; conditions: cited from earlier work
[9] = test system: α4β4 neuronal nicotinic acetylcholine receptors; conditions: 75mM ethanol; cited from earlier work
[10] = test system: α2β2 neuronal nicotinic acetylcholine receptors; conditions: 75mM ethanol; cited from earlier work
[11] = test system: α3β2 neuronal nicotinic acetylcholine receptors; conditions: cited from earlier work
[12] = test system: homomeric α7 receptors; conditions: 25–50 mM ethanol, response is variable; cited from earlier work
[13] = test system: glycine receptors; conditions: cited from earlier work
[14] = test system: 5HT3A receptors; conditions: 1 MAC of halothane; cited from earlier work
[15] = test system: α4 β2 nACh receptors; conditions: inhibition; cited from earlier work
[16] = cited from earlier work
[17] = test system: GABA receptors; conditions: nitrous oxide at 0.6 atm; cited from earlier work
[18] = test system: α4β2 nACh receptors; conditions: nitrous oxide at 0.6 atm; cited from earlier work
[19] = test system: α4β4 nACh receptors; conditions: nitrous oxide at 0.6 atm; cited from earlier work
[20] = target: glycine α1 receptors; conditions: enhancement of glycine currents; cited from earlier work
[21] = target: glycine α1 β receptors; conditions: enhancement of glycine currents; cited from earlier work
[22] = IC50_1, two-site model, apparent affinity for site 1
[23] = IC50_2, two-site model, apparent affinity for site 2

CCOC(=O)c1cncn1[C@H](C)c1ccccc1 (single isomer, unassigned) [R isomer]
Hill Coefficient [1]: 1.9

CCOC(=O)c1cncn1[C@@H](C)c1ccccc1 (single isomer, unassigned) [S isomer]
Hill Coefficient [1]: 2.9

FC(F)OC(F)C(F)(F)F (stereo not drawn) [Desflurane]
EC50 [2]: 560 µM | concentration at which inhibition of GLIC was produced [3]: 0.01 % of MAC | effect on currents through GLIC (current tracing) ([3]; 0.5 mM desflurane): inhibit currents through GLIC | Hill Coefficient [3]: 0.25 ± 0.05 | Hill Coefficient ([3]; listed as desflurane): 0.25 | IC50 [3, 22]: 0.01 µM | IC50 [3, 23]: 300 µM

CCO [Ethanol]
effect on currents ([4]; 75mM ethanol): potentiates currents | sensitivity to ethanol [5]: not sensitive to ethanol | effect on currents ([6]; 75mM ethanol): potentiates currents | maximal increase in currents ([7]; ethanol 50 to 200 mM): ≤ 50% | lowest potentiating concentration [8]: 3 mM | effect on currents [9]: potentiates currents | effect on currents [10]: potentiates currents | sensitivity to ethanol [11]: not sensitive to ethanol | effect on receptors [12]: inhibits | effect on GLIC currents ([3]; 200 mM ethanol compared to controls (p > 0.05)): no effect | effect on GLIC currents ([3]; 200 mM ethanol compared to controls (p > 0.05), listed as ethanol): did not modulate channel currents | modulation of GLIC [3]: did not modulate GLIC

CCOC(=O)c1cncn1[C@H](C)c1ccccc1 [Etomidate]
potentiation of currents through glycine receptors ([13]; 300μM etomidate): 29% | effect on GLIC currents relative to anesthetic concentrations [3]: inhibitory only at concentrations above those used to achieve anesthesia | effect on currents through GLIC (current tracing) ([3]; 50 μM etomidate): inhibit currents through GLIC | Hill Coefficient [3]: not different from 1

FC(F)(F)C(Cl)Br (stereo not drawn) [Halothane]
EC50 [2]: 230 µM | potentiation of 5HT3A receptors [14]: approximately 200% | concentration at which inhibition of GLIC was produced [3]: 1 % of MAC | effect on currents through GLIC (current tracing) ([3]; 0.25 mM halothane): inhibit currents through GLIC | Hill Coefficient [3]: 0.27 ± 0.04 | Hill Coefficient ([3]; listed as halothane): 0.27 | IC50 [3, 22]: 0.3 µM | IC50 [3, 23]: 1100 µM

FC(F)OC(Cl)C(F)(F)F (stereo not drawn) [Isoflurane]
EC50 [2]: 280 µM | Hill number [15]: 1.3 | IC50 [15]: 85 µM | IC50 ([4]; α4β2 isoform): 82 µM | IC50 ([5]; α3 β4 isoform): 56 µM | IC50 ([6]; α2 β4 isoform): 25 µM | potentiation of 5HT3 receptor function ([7]; anesthetic concentration raised to 10 MAC): > 100% | enhancement of 5HT3 receptor function ([7]; at MAC): less than 50% | concentration at which inhibition of GLIC was produced [3]: 1 % of MAC | effect on currents through GLIC (current tracing) ([3]; 0.3 mM isoflurane): inhibit currents through GLIC | Hill Coefficient [3]: 0.32 ± 0.07 | Hill Coefficient ([3]; listed as isoflurane): 0.32

[N-]=[N+]=O [Nitrous Oxide]
Anesthetic EC50 ([16]; MAC in humans): 1.04 atm ([7]) | inhibition ([7]; nitrous oxide at 0.6 atm): approximately 15% | potentiation of glycine receptor function ([13]; nitrous oxide at 0.6 atm): approximately 30% | potentiation of GABA receptor function [17]: ~20% | inhibition [18]: 39% | inhibition [19]: 7% | modulation of GLIC [3]: did not modulate GLIC

CC(C)c1cccc(C(C)C)c1O [Propofol]
EC50 [2]: 1.9 µM | Hill number [15]: 2.9 | IC50 [15]: 19 µM | EC50 [20]: 16 µM | EC50 [21]: 27 µM | lowest concentration inhibiting currents [3]: 2 % of its anesthetic EC50 | effect on currents through GLIC (current tracing) ([3]; 1 μM propofol): inhibit currents through GLIC | Hill Coefficient [3]: 0.42 ± 0.08 | Hill Coefficient ([3]; listed as propofol): 0.42

FCOC(C(F)(F)F)C(F)(F)F [Sevoflurane]
EC50 [2]: 330 µM | effect on currents through 5HT3 receptors ([7]; at MAC): inhibiting rather than enhancing currents | concentration at which inhibition of GLIC was produced [3]: 1 % of MAC | effect on currents through GLIC (current tracing) ([3]; 0.3 mM sevoflurane): inhibit currents through GLIC | Hill Coefficient [3]: 0.27 ± 0.1 | Hill Coefficient ([3]; listed as sevoflurane): 0.27

[Xe] [Xenon]
Anesthetic EC50 ([16]; MAC of xenon in humans): 0.71 atm ([5]) | effect on GLIC currents ([3]; 0.8 atm xenon): significantly inhibited currents | effect on currents through GLIC (current tracing) ([3]; 80 % atm xenon): inhibit currents through GLIC | Hill Coefficient [3]: 1.9 ± 0.47 | Hill Coefficient ([3]; listed as xenon): not different from 1; also recorded: not significantly different than 1
